Values after ≈ are worked out from the molar mass of the structure shown. Read-outs that look alike come from different tables or passages of the source. Values belong to the molecule of their own block, whether it stands above or below them.
How the values were obtained:
RET M918T = target: T1, RET M918T (Homo sapiens, UniProt P07949, M918T); assay: HTRF kinase activity inhibition, RET M918T; assay type: biochemical; details: ATP at Km
T1 construct: purchased Carna 08-508
From the text: (§1) 2.2 Experimental Reagents: • RET enzyme was purchased from Carna Company, and the article number was 08-159; • RET M918T enzyme was purchased from Carna Company, and the article number was 08-508; • KIF5B-RET was purchased from SignalChem Company, the article number was R02-19FG-05; • CCDC6-RET was purchased from SignalChem Company, the article number was R02-19BG-05; • RET V804M enzyme was purchased from Thermofisher Company, and the article number was PV6223; • RET V804L enzyme was purchased from Thermofisher Company, and the article number was PV4397; • HTRF KinEASE-TK kit was purchased from Cisbio Company, and the article number was 62TK0PEC; • ATP was purchased from Thermofisher Company, and the article number was PV3227; • 384-well plate was purchased from PerkinElmer Company, and the article number was 6007290.
(§2) In this experiment, a homogeneous time-resolved fluorescence (HTRF) method was used for the detection of compounds on RET kinase activity.

CCDC6-RET = target: T2, CCDC6-RET (Homo sapiens, UniProt P07949); assay: HTRF kinase activity inhibition, CCDC6-RET; assay type: biochemical; details: ATP at Km
T2 construct: purchased SignalChem R02-19BG-05; the other entry of the earlier key: CCDC6 (Q16204, Coiled-coil domain-containing protein 6)
T2 sequence (P07949 with tags, fused parts or gaps): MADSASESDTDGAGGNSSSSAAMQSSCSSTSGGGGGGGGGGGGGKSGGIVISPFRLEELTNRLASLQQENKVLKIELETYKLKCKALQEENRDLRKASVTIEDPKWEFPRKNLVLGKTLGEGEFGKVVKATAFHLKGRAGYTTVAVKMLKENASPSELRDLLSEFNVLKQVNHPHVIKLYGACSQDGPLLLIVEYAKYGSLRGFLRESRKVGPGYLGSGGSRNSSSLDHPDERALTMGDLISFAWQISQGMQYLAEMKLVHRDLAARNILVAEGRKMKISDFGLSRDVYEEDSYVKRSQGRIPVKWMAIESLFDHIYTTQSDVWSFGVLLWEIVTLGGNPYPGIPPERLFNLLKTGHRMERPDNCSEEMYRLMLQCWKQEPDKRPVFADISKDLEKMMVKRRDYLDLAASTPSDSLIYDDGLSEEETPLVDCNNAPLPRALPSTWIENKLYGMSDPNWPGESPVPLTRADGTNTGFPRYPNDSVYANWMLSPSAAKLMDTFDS
From the text: as §1, §2

KIF5B-RET = target: T3, KIF5B-RET (Homo sapiens, UniProt P07949); assay: HTRF kinase activity inhibition, KIF5B-RET; assay type: biochemical; details: ATP at Km
T3 construct: purchased SignalChem R02-19FG-05; the other entry of the earlier key: KIF5B (P33176, Kinesin-1 heavy chain)
T3 sequence (P07949 with tags, fused parts or gaps): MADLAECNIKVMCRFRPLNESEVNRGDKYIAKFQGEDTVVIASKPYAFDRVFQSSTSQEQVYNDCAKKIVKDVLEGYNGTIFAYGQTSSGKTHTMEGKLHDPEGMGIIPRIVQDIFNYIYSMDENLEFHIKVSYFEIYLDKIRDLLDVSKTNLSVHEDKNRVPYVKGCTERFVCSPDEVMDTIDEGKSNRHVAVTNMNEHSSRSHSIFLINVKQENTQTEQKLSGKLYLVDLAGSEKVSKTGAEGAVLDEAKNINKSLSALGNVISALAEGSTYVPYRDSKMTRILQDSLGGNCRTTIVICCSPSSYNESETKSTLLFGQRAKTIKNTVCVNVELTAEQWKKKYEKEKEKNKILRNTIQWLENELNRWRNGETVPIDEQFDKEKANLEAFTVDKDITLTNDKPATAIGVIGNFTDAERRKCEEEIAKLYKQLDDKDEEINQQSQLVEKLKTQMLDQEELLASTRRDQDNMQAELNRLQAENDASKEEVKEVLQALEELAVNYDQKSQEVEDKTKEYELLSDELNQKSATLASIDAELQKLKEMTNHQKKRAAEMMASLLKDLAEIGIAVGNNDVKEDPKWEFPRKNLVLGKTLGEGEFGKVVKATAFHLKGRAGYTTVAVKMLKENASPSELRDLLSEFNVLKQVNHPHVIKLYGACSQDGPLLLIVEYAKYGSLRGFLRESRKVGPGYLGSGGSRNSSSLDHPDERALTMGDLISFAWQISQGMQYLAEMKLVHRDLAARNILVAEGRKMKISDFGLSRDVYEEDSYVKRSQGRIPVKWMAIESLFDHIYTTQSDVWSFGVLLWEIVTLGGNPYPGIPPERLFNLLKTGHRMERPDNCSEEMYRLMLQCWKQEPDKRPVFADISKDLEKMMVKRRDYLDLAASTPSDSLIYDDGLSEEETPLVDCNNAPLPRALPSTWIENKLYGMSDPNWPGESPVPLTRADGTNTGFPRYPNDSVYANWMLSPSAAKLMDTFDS
From the text: as §1, §2

RET V804M = target: T4, RET V804M (Homo sapiens, UniProt P07949, V804M); assay: HTRF kinase activity inhibition, RET V804M; assay type: biochemical; details: ATP at Km
T4 construct: purchased Thermofisher PV6223
From the text: as §1, §2

RET V804L = target: T5, RET V804L (Homo sapiens, UniProt P07949, V804L); assay: HTRF kinase activity inhibition, RET V804L; assay type: biochemical; details: ATP at Km
T5 construct: purchased Thermofisher PV4397
From the text: as §1, §2

[1] = Solid stability of crystal form I (HPLC impurities); assay type: physicochemical; details: 14 days
Procedure: To investigate the physical and chemical stability of the compound under light 5000 lx, high temperature 60° C., high humidity 92.5% RH, high temperature and high humidity 50° C./75% RH conditions to provide a basis for the storage of the compound.
[…] 5000 lx, high temperature 60° C., high humidity 92.5% RH, high temperature and high humidity 50° C./75% RH, and the content was determined by HPLC with external standard method, and the changes of the related substances were calculated by the area normalization method for chromatographic peak.

[2] = Hygroscopicity (DVS) of crystal form I; assay type: physicochemical
Procedure: The crystal form I of the free base of the compound was placed in the saturated water vapor at the […] relative humidity to make the compound reach dynamic equilibrium with the water vapor, and the percentage of hygroscopic weight gain of the compound was calculated after equilibrium.

[3] = Thermodynamic solubility in different media at 37° C.; assay type: physicochemical; details: thermodynamic from solid, read-out: Solubility of crystal form I
Procedure: To compare the solubility of the crystal form I of the free base in pH 1-8 USP buffer, artificial simulated gastric fluid (FaSSGF), fasting artificial simulated intestinal fluid (FaSSIF), non-fasting artificial simulated intestinal fluid (FeSSIF) and pure water and other medium to provide a basis for the assessment of druggablitity.
About 1 mg of the crystal form I of the free base was mixed and suspended in different mediums for 4 hours.

[4] = High temperature and high humidity/50° C./75% RH

T5 sequence (P07949 29-1114 V804L): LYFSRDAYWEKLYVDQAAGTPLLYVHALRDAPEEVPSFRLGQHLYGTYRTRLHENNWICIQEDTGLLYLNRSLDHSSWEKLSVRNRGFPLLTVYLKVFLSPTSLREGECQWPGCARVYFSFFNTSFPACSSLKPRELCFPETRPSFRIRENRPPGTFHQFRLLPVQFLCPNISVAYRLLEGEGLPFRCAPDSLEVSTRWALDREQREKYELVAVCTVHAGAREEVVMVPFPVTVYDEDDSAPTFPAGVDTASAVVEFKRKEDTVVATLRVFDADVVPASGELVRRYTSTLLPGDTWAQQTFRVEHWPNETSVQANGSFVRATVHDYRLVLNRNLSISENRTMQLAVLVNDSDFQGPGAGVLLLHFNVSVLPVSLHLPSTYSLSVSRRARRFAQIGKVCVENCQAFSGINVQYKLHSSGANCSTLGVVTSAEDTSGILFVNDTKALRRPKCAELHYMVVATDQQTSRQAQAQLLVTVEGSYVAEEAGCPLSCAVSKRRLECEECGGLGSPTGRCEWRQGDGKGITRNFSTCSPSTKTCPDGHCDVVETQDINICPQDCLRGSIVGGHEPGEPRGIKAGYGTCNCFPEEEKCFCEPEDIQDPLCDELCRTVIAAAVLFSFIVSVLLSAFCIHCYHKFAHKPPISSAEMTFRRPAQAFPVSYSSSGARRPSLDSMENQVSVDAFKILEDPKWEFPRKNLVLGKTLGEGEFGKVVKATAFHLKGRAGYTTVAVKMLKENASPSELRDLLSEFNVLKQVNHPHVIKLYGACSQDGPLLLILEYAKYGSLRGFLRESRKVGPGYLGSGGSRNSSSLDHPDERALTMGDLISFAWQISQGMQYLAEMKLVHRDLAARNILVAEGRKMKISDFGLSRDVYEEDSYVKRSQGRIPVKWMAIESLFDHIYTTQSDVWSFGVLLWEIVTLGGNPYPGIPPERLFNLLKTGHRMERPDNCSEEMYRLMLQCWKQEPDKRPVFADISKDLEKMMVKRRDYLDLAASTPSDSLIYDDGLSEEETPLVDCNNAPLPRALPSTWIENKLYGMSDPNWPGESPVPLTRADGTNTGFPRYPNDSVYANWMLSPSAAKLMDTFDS
T4 sequence (P07949 29-1114 V804M): as the sequence (P07949 29-1114 V804L) above, with L776M counted along it
T1 sequence (P07949 29-1114 M918T): as the sequence (P07949 29-1114 V804L) above, with L776V, M890T counted along it

IC50 (RET M918T): 0.37 nM
IC50 (CCDC6-RET): 1.72 nM
IC50 (KIF5B-RET): 0.5 nM
IC50 (RET V804M): 1.1 nM
IC50 (RET V804L): 0.28 nM
Structure (SMILES): CC1(NC(=O)c2ncccc2Cl)CCN(c2ccc(-c3cc(C#CC4(O)COC4)cn4ncc(C#N)c34)cn2)CC1 [Embodiment 97, 3-Chloro-N-(1-(5-(3-cyano-6-((3-hydroxyoxetan-3-yl)ethynyl)pyrazolo[1,5-a]pyridin-4-yl)pyridin-2-yl)-4-methylpiperidin-4-yl)picolinamide]

Increase of total impurities % ([1]; High humidity/92.5% RH): <0.02%
Maximum increase of single impurity % ([1]; High humidity/92.5% RH): <0.02%
Increase of total impurities % [1, 4]: <0.02%
Maximum increase of single impurity % [1, 4]: 0.11%
Increase of total impurities % ([1]; High temperature/60° C.): <0.02%
Maximum increase of single impurity % ([1]; High temperature/60° C.): 0.06%
Increase of total impurities % ([1]; Light/5000 lx): <0.02%
Maximum increase of single impurity % ([1]; Light/5000 lx): 0.18%
hygroscopic weight gain ([2]; RH80%, 25° C.): about 0.43%
hygroscopicity ([2]; RH80%, 25° C.): slightly hygroscopicity
XRPD pattern / crystal form after moisture absorption and desorption ([2]; two cycles at 0-95% RH): the crystal form has not transformed
solubility at 4 h ([3]; FaSSGF (artificial simulated gastric fluid), fassgf or other biorelevant, FaSSGF, 37° C.): > 2000 µg/mL
solubility at 4 h ([3]; FaSSIF (fasting artificial simulated intestinal fluid), FaSSIF, 37° C.): 1 µg/mL (≈ 1.87 µM)
solubility at 4 h ([3]; FeSSIF (non-fasting artificial simulated intestinal fluid), FeSSIF, 37° C.): 90 µg/mL (≈ 168 µM)
solubility at 4 h ([3]; USP buffer pH 1, simulated gastric fluid, pH 1, 37° C.): > 2000 µg/mL
solubility at 4 h ([3]; USP buffer pH 2, simulated gastric fluid, pH 2, 37° C.): > 2000 µg/mL
solubility at 4 h ([3]; USP buffer pH 3, aqueous buffer, pH 3, 37° C.): 710 µg/mL (≈ 1330 µM)
solubility at 4 h ([3]; USP buffer pH 4, aqueous buffer, pH 4, 37° C.): 370 µg/mL (≈ 691 µM)
solubility at 4 h ([3]; USP buffer pH 5, aqueous buffer, pH 5, 37° C.): 20 µg/mL (≈ 37.3 µM)
solubility at 4 h ([3]; USP buffer pH 6, aqueous buffer, pH 6, 37° C.): 1 µg/mL (≈ 1.87 µM)
Structure (SMILES): C#C[C@@](C)(O)COc1cc(-c2ccc(N3CC4CC(C3)N4Cc3ccc(OC)nc3)nc2)c2c(C#N)cnn2c1 [crystal form I, 6-(((R)-2-hydroxy-2-methylbut-3-yn-1-yl)oxy)-4-(6-(6-((6-methoxypyridin-3-yl)methyl)-3,6-diazabicyclo[3.1.1]heptan-3-yl)pyridin-3-yl)pyrazolo[1,5-a]pyridine-3-carbonitrile]
